ChEMBL document CHEMBL3044558, “Structure-activity relationship development of dihaloaryl triazole compounds as insecticides and acaricides. 1. Phenyl thiophen-2-yl triazoles” (2007)
Active and inactive are the calls of the source. No cut-off for these calls is given here.

Assays:
Bemisia tabaci [1] = test system: Bemisia tabaci
Spodoptera exigua = test: Insecticidal activity against Spodoptera exigua second-instar larvae feeded on 400 ppm compound treated lepidopteran diet assessed as insect mortality measured 5 days post compound treatment under green house conditions; assay type: functional; details: at 400 ppm
Tetranychus urticae = test: Insecticidal activity against female Tetranychus urticae (two-spotted spider mite) infested cotton leaf disks followed by 2.5 ppm compound spraying after oviposit assessed as insect mortality measured after 6 days post compound application under green house conditions; assay type: functional; details: foliar, 144 h
Aphis gossypii [2] = test system: Aphis gossypii
Heliothis virescens = test: Insecticidal activity against Heliothis virescens (tobacco budworm) second-instar larvae infested on 400 ppm compound pre-treated cotton cotyledon disk assessed as insect mortality measured 5 days post compound treatment under green house conditions; assay type: functional
Trichoplusia ni [3] = test: Insecticidal activity against Trichoplusia ni (cabbage looper) second-instar larvae infested on 400 ppm compound pre-treated cabbage leaf disk assessed as insect mortality measured 5 days post compound treatment under green house conditions; assay type: functional; details: at 400 ppm
Aphis gossypii [4] = test: Insecticidal activity against Aphis gossypii (cotton aphid) infested one week old Crookneck squash plants assessed as insect mortality at 50 ppm measured after 3 days post compound application under green house conditions; assay type: functional; details: 72 h
Bemisia tabaci [5] = test: Insecticidal activity against Bemisia tabaci (sweet potato whitefly) second-instar larvae infested five weeks old cotton plants followed by compound 250 ppm compound spraying after insect oviposit assessed as insect mortality measured 13 days post compound treatment under green house conditions; assay type: functional
Trichoplusia ni [6] = test system: Trichoplusia ni

Structure (SMILES) | mortality (Bemisia tabaci [1]) | mortality (Spodoptera exigua) [%] | mortality at 2.5 ppm (Tetranychus urticae) [%] | mortality (Aphis gossypii [2]) | mortality (Heliothis virescens) [%] | mortality (Trichoplusia ni [3]) [%] | mortality at 50 ppm (Aphis gossypii [4]) [%] | mortality (Bemisia tabaci [5]) [%] | mortality (Trichoplusia ni [6])
CCOc1ccc(-c2cc(Cl)c(-c3nc(-c4c(F)cccc4Cl)nn3C)s2)cc1 | inactive | 80 | 90 | inactive | 60 | 90 |  |  | 
Cc1cc(-c2cccc(C(F)(F)F)c2F)sc1-c1nc(-c2c(F)cccc2Cl)nn1C | inactive | 60 | 90 |  | 90 | 90 | 60 |  | 
Cc1cc(C2=CCC(OC(F)(F)C(F)Cl)CC2)sc1-c1nc(-c2c(F)cccc2Cl)nn1C (stereo unspecified) |  | 70 | 90 |  | 90 |  | 90 | 50 | inactive
Cc1cc(Oc2ncc(C(F)(F)F)cc2Cl)sc1-c1nc(-c2c(F)cccc2Cl)nn1C |  | 70 | 90 |  | 90 |  | 90 | 90 | inactive
CCOc1ccc(-c2c(C)sc(-c3nc(-c4c(F)cccc4Cl)nn3C)c2C)cc1 |  | 80 | < 50 |  | 70 |  | < 50 | <50 | inactive
Cc1cc(-c2ccc(OC(C)C)cc2)sc1-c1nc(-c2c(F)cccc2Cl)nn1C |  | 60 | 60 | inactive | 80 | 90 |  |  | 
Cc1cc(-c2ccc3c(c2)COC3)sc1-c1nc(-c2c(F)cccc2Cl)nn1C | inactive | 60 | 80 | inactive | 90 | 70 |  |  | 
Cc1cc(-c2ccc3c(c2)OCCO3)sc1-c1nc(-c2c(F)cccc2Cl)nn1C | inactive | 80 | 90 | inactive | 90 | 80 |  |  | 
Cc1cc(C2=CCC(OC(=O)C(F)(F)Br)CC2)sc1-c1nc(-c2c(F)cccc2Cl)nn1C (stereo unspecified) |  | <50 | 70 |  | 90 |  | < 50 |  | inactive
Cn1nc(-c2c(F)cccc2Cl)nc1-c1sc(-c2ccc(C(C)(C)C)cc2)c(Cl)c1Cl |  | 50 | 60 |  | <50 |  | 80 | <50 | inactive
Cc1cc(-c2ccc(C(C)C)cc2)sc1-c1nc(-c2c(F)cccc2Cl)nn1C | inactive | 70 | 90 |  | 90 | 90 | < 50 |  | 
CCOc1cccc(-c2cc(C)c(-c3nc(-c4c(F)cccc4Cl)nn3C)s2)c1 | inactive | 80 | 70 | inactive | <50 | <50 |  |  | 
Cc1c(-c2ccc(OC(F)(F)C(F)Br)cc2)sc(-c2nc(-c3c(F)cccc3Cl)nn2C)c1C (stereo unspecified) |  | 70 | 90 |  | 90 |  | < 50 | 80 | inactive
Cc1cc(-c2ccc(F)cc2)sc1-c1nc(-c2c(F)cccc2Cl)nn1C | inactive | 80 | 60 |  | 90 | 90 | < 50 |  | 
Cn1nc(-c2c(F)cccc2F)nc1-c1sc(-c2ccc(OC(F)(F)F)cc2)cc1Cl | inactive | <50 | 90 |  | 80 | <50 | 80 |  | 
Cn1nc(-c2c(F)cccc2Cl)nc1-c1sc(-c2ccc(Br)cc2)cc1Cl | inactive | 80 | 90 |  | 90 | 90 | 90 |  | 
CCOc1ccc(-c2sc(-c3nc(-c4c(F)cccc4Cl)nn3C)c(C)c2C)cc1 | inactive | 90 | 90 |  | <50 | 80 | < 50 |  | 
Cc1c(-c2ccc(C(C)C)cc2)csc1-c1nc(-c2c(F)cccc2Cl)nn1C | inactive | 80 | 90 | inactive | 90 | 50 |  |  | 
CCOc1ccc(-c2sc(-c3nc(-c4c(F)cccc4Cl)nn3C)c(Cl)c2Br)cc1 | inactive | 90 | 60 |  | 90 | <50 | < 50 |  | 
Cc1cc(-c2cccc(C(F)(F)F)c2)sc1-c1nc(-c2c(F)cccc2Cl)nn1C | inactive | 70 | < 50 |  | <50 | 90 | < 50 |  | 
Cc1sc(-c2nc(-c3c(F)cccc3Cl)nn2C)c(C)c1-c1ccc(C(F)(F)F)cc1 |  | 90 | 90 |  | 60 |  | < 50 | 60 | inactive
CCOc1ccc(-c2cc(Cl)c(-c3nc(-c4c(F)cccc4F)nn3C)s2)cc1 | inactive | 60 | 80 | inactive | 90 | <50 |  |  | 
Cc1c(-c2ccc(OC(F)(F)C(F)Br)cc2)csc1-c1nc(-c2c(F)cccc2Cl)nn1C (stereo unspecified) |  | 90 | 90 |  | 90 |  | 80 | 90 | inactive
Cc1sc(-c2nc(-c3c(F)cccc3Cl)nn2C)c(C)c1-c1ccc(OC(F)(F)C(F)Cl)cc1 (stereo unspecified) |  | 80 | 70 |  | 80 | <50 | < 50 | 80 | 
Cn1nc(-c2c(F)cccc2Cl)nc1-c1sc(-c2ccc(-c3ccccc3)cc2)c(Cl)c1Cl |  | 50 | 80 |  | 90 |  | 90 | <50 | inactive
Cc1sc(-c2nc(-c3c(F)cccc3Cl)nn2C)c(C)c1-c1ccc(Cl)cc1 | inactive | 80 | 80 |  | 90 | <50 | 50 |  | 
Cn1nc(-c2c(F)cccc2Cl)nc1-c1sc(-c2ccc(OC(F)(F)F)cc2)c(Br)c1Cl |  | 90 | 80 |  | 90 | 70 | 60 | <50 | 
Cc1c(-c2nc(-c3c(F)cccc3Cl)nn2C)sc(Br)c1-c1ccc(OC(F)(F)C(F)Br)cc1 (stereo unspecified) |  | 80 | 90 |  | 90 |  | < 50 | <50 | inactive
